Test results: ChEMBL document CHEMBL4354832, “Discovery of a Covalent Inhibitor of KRASG12C (AMG 510) for the Treatment of Solid Tumors” (J Med Chem, 2020)
In brackets after ≈: the same amount, converted by molar mass. Values belong to the compound of their own block, whether it stands above or below them. Activity calls are given as the source filed them. No cut-off for these calls is given here.

What was measured:
GTPase KRas [1] = biological target: GTPase KRas (Homo sapiens, UniProt P01116, C118A/G12C); experiment: Inhibition of GDP bound recombinant human His-tagged KRAS G12C/C118A mutant (1 to 169 residues) assessed as reduction in SOS1-mediated GDP/GTP nucleotide exchange by measuring the disruption between GDP-bound recombinant His-tagged KRAS G12C/C118A (1 to 169 residues) and Ras binding domain of GST-tagged c-RAF (1 to 149 residues) preincubated for 5 mins followed by SOS1 and GTP addition and further incubated for 30 mins by AlphaLISA assay
[2] = Clearance in BALB/c mouse at 1 mg/kg, iv or 10 mg/kg, po; type: ADME, organism-based; conditions: in vivo
[3] = Oral bioavailability in BALB/c mouse at 10 mg/kg; type: ADME, organism-based; conditions: in vivo
[4] = Protein binding in BALB/c mouse plasma assessed as unbound fraction by ultracentrifugation; type: ADME, cell-free
[5] = Ratio of unbound plasma concentration in BALB/c mouse at 10 mg/kg to IC50 for inhibition of KRAS in human MIAPaca2 cells assessed as decrease in EGF-stimulated ERK1/2 phosphorylation preincubated for 2 hrs followed by EGF stimulation; type: organism-based; conditions: in vivo
GTPase KRas [6] = biological target: GTPase KRas (Homo sapiens, UniProt P01116); experiment: Inhibition of KRAS in human MIAPaca2 cells assessed as decrease in EGF-stimulated ERK1/2 phosphorylation preincubated for 2 hrs followed by EGF stimulation; type: cell-based
[7] = Half life in BALB/c mouse at 1 mg/kg, iv or 10 mg/kg, po; type: ADME, organism-based; conditions: in vivo
[8] = Intrinsic clearance in mouse cryopreserved hepatocytes assessed per 10^6 cells at 0.5 uM measured upto 60 mins by LCMS analysis; type: ADME, cell-based, Hepatocyte; conditions: read-out: CLH
[9] = Solubility of compound in 0.01N HCl at pH 2 incubated for 48 to 72 hrs under shaking conditions by LCMS analysis; type: physicochemical
[10] = Intrinsic clearance in human cryopreserved hepatocytes assessed per 10^6 cells at 0.5 uM measured upto 60 mins by LCMS analysis; type: ADME, cell-based, Hepatocyte; conditions: read-out: CLH
A549 = experiment: Antiproliferative activity against human A549 cells harboring KRAS G12S point mutant assessed as cell growth inhibition after 72 hrs by Celltiter-Glo luminescent cell viability assay; type: functional, cell-based; conditions: A549, 72 h
[11] = Solubility of compound in PBS buffer at pH 7.4 incubated for 48 to 72 hrs under shaking conditions by LCMS analysis; type: physicochemical
[12] = Solubility of compound in FaSSIF incubated for 48 to 72 hrs under shaking conditions by LCMS analysis; type: physicochemical
Mus musculus [13] = experiment: Decrease in ERK1/ERK2 phosphorylation in human MIAPaCa2 cells xenografted in athymic nude mouse at 10 to 100 mg/kg, po administered as single dose measured after 60 to 120 mins post-treatment; type: functional, organism-based
[14] = Permeability of compound across apical to basolateral membrane in MDCK2 cells at 10 to 50 uM incubated for 2 hrs under shaking condition by LC-MS/MS analysis; type: ADME, cell-based, Canis lupus familiaris, MDCK-II; conditions: dog, MDCK; read-out: permeability
MIA PaCa-2 [15] = experiment: Antiproliferative activity against human MIAPaCa2 cells harboring KRAS G12C point mutant assessed as cell growth inhibition after 72 hrs by Celltiter-Glo luminescent cell viability assay; type: functional, cell-based; conditions: MIA PaCa-2, 72 h
[16] = Half life of compound at 25 degree C; type: physicochemical
[17] = Volume of distribution at steady state in Sprague-Dawley rat at 1 mg/kg, iv or 10 mg/kg, po; type: ADME, organism-based; conditions: in vivo, read-out: Vdss
[18] = Protein binding in plasma of human assessed as unbound fraction at […] by ultracentrifugation; type: ADME, cell-free
Mus musculus [19] = experiment: Decrease in ERK1/ERK2 phosphorylation in human MIAPaCa2 cells xenografted in athymic nude mouse at > 10 mg/kg, po administered as single dose measured after 60 to 120 mins post-treatment; type: functional, organism-based
MIA PaCa-2 [20] = experiment: Antitumor activity against human MIAPaCa2 cells harboring KRAS G12C point mutant xenografted in athymic nude mouse assessed as tumor growth inhibition at 10 mg/kg, po qd measured after 26 days relative to control; type: functional
MIA PaCa-2 [21] = experiment: Antitumor activity against human MIAPaCa2 cells harboring KRAS G12C point mutant xenografted in athymic nude mouse assessed as tumor regression at 30 mg/kg, po qd measured after 26 days relative to control; type: functional
[22] = Volume of distribution at steady state in Beagle dog at 1 mg/kg, iv or 10 mg/kg, po; type: ADME, organism-based, Canis lupus familiaris; conditions: in vivo, read-out: Vdss
[23] = Clearance in Sprague-Dawley rat at 1 mg/kg, iv or 10 mg/kg, po; type: ADME, organism-based; conditions: in vivo
[24] = Oral bioavailability in Sprague-Dawley rat at 10 mg/kg; type: ADME, organism-based; conditions: in vivo
[25] = Half life in Beagle dog at 1 mg/kg, iv or 10 mg/kg, po; type: ADME, organism-based, Canis lupus familiaris; conditions: in vivo
[26] = Tmin in plasma of athymic nude mouse xenografted with human MIAPaCa2 cells at > 10 mg/kg, po administered as single dose; type: ADME, organism-based; conditions: in vivo
[27] = Time taken to achieve Cmax in tumor of athymic nude mouse xenografted with human MIAPaCa2 cells at > 10 mg/kg, po administered as single dose; type: ADME, organism-based, Neoplasm; conditions: read-out: tCmax (converted)
MIA PaCa-2 [28] = experiment: Antitumor activity against human MIAPaCa2 cells harboring KRAS G12C point mutant xenografted in athymic nude mouse assessed as tumor regression at >= 30 mg/kg, po qd measured after 26 days; type: functional, organism-based
MIA PaCa-2 [29] = experiment: Antitumor activity against human MIAPaCa2 cells harboring KRAS G12C point mutant xenografted in athymic nude mouse assessed as tumor regression at 100 mg/kg, po qd measured after 26 days relative to control; type: functional
[30] = Protein binding in plasma of Beagle dog assessed as unbound fraction at […] by ultracentrifugation; type: ADME, cell-free, Canis lupus familiaris
[31] = Volume of distribution at steady state in BALB/c mouse at 1 mg/kg, iv or 10 mg/kg, po; type: ADME, organism-based; conditions: in vivo, read-out: Vdss
[32] = Clearance in Beagle dog at 1 mg/kg, iv or 10 mg/kg, po; type: ADME, organism-based, Canis lupus familiaris; conditions: in vivo
[33] = Time taken to achieve Cmax in plasma of athymic nude mouse xenografted with human MIAPaCa2 cells at > 10 mg/kg, po administered as single dose; type: ADME, organism-based; conditions: read-out: tCmax (converted)
[34] = Unbound plasma concentration in athymic nude mouse xenografted with human MIAPaCa2 cells at 10 mg/kg, po qd after 8 hrs post-last dose; type: ADME, organism-based; conditions: in vivo
[35] = Half life of compound in aqueous phosphate buffer at pH 7.4 and at 37 degree C in presence of 5 mM GSH; type: physicochemical; conditions: aqueous phosphate buffer with 5 mM GSH
[36] = Oral bioavailability in Beagle dog at 10 mg/kg; type: ADME, organism-based, Canis lupus familiaris; conditions: in vivo
[37] = Protein binding in plasma of BALB/c mouse assessed as unbound fraction at […] by ultracentrifugation; type: ADME
[38] = Protein binding in plasma of Sprague-Dawley rat assessed as unbound fraction at […] by ultracentrifugation; type: ADME, cell-free
[39] = Half life in Sprague-Dawley rat at 1 mg/kg, iv or 10 mg/kg, po; type: ADME, organism-based; conditions: in vivo

SMILES: C=CC(=O)N1CCN(c2nc(=O)n(-c3c(CC)cccc3CC)c3nc(-c4c(O)cccc4F)c(Cl)cc23)[C@@H](C)C1
IC50 (GTPase KRas [1]): 68 nM
clearance [2]: 55 mL/min/kg
bioavailability [3]: 8%
fraction unbound [4]: 0.03
Ratio [5]: 0.8
IC50 (GTPase KRas [6]): 36 nM
half-life [7]: 30 min

SMILES: C=CC(=O)N1CCN(c2nc(=O)n(-c3c(C(C)C)ncnc3C(C)C)c3nc(-c4c(O)cccc4F)c(Cl)cc23)[C@@H](C)C1
IC50 (GTPase KRas [1]): 21 nM
clearance [2]: 38.3 mL/min/kg
bioavailability [3]: 13%
fraction unbound [4]: 0.03
Ratio [5]: 0.8
IC50 (GTPase KRas [6]): 25 nM
half-life [7]: 48 min

SMILES: C=CC(=O)N1CCN(c2nc(=O)n(-c3scnc3C(C)C)c3nc(-c4c(O)cccc4F)c(Cl)cc23)[C@@H](C)C1
clearance [2]: 36.7 mL/min/kg
bioavailability [3]: 22%
fraction unbound [4]: 0.02
Ratio [5]: 1.5
IC50 (GTPase KRas [6]): 63 nM
half-life [7]: 66 min

SMILES: C=CC(=O)N1CCN(c2nc(=O)n(-c3c(C)cccc3C(C)C)c3nc(-c4c(O)cccc4F)c(Cl)cc23)[C@@H](C)C1
hepatocyte CLint at 0.5 µM [8]: 102 µL/min/1e6 cells
solubility thermodynamic [9]: 9 µM (≈ 5.18 µg/mL)
hepatocyte CLint at 0.5 µM [10]: 30 µL/min/1e6 cells
IC50 (A549): 11.9 µM
clearance [2]: 23.3 to 45 mL/min/kg
solubility thermodynamic [11]: 12 µM (≈ 6.91 µg/mL)
bioavailability [3]: 4 to 21%
fraction unbound [4]: 0.03
solubility thermodynamic [12]: 204 µM (≈ 118 µg/mL)
inhibition (Mus musculus [13]): Active
Papp A→B at 2 h, up to 50 µM [14]: 15 ×10⁻⁶ cm/s
IC50 (MIA PaCa-2 [15]): 2 nM
Ratio [5]: 4.5
IC50 (GTPase KRas [6]): 28 nM
half-life [7]: 30 to 54 min

SMILES: C=CC(=O)N1CCN(c2nc(=O)n(-c3ccccc3C(C)C)c3nc(-c4c(O)cccc4F)c(Cl)cc23)[C@@H](C)C1 (stereo in doubt; (S)-18)
t1/2 [16]: 8 days

Vd [17]: 2 L/kg
fraction unbound at […] [18]: 0.09
Vd [22]: 0.73 L/kg
hepatocyte CLint at 0.5 µM [8]: 36 µL/min/1e6 cells
solubility thermodynamic [9]: 499 µM (≈ 280 µg/mL)
hepatocyte CLint at 0.5 µM [10]: 9 µL/min/1e6 cells
clearance [23]: 56.7 mL/min/kg
bioavailability [24]: 2.8%
half-life [25]: 24 min
Tmin [26]: 120 min
Tmax [27]: 30 min
IC50 (A549): 36.5 µM
clearance [2]: 26.7 mL/min/kg
solubility thermodynamic [11]: 423 µM (≈ 237 µg/mL)
bioavailability [3]: 22 to 40%
solubility thermodynamic [12]: 492 µM (≈ 276 µg/mL)
fraction unbound at […] [30]: 0.17
Vd [31]: 0.7 L/kg
clearance [32]: 36.7 mL/min/kg
Tmax [33]: 30 min
Cp(f) [34]: < 1 nM
Papp A→B at 2 h, up to 50 µM [14]: 6 ×10⁻⁶ cm/s
IC50 (MIA PaCa-2 [15]): 5 nM
half-life [35]: 200 min
bioavailability [36]: 0.34%
fraction unbound at […] [37]: 0.06
fraction unbound at […] [38]: 0.05
half-life [7]: 30 min
half-life [39]: 30 min
SMILES: C=CC(=O)N1CCN(c2nc(=O)n(-c3c(C)ccnc3C(C)C)c3nc(-c4c(O)cccc4F)c(F)cc23)[C@@H](C)C1 [SOTORASIB]
inhibition (Mus musculus [19]): Active
TGI (MIA PaCa-2 [20]): 86%
inhibition (INH) (MIA PaCa-2 [21]): 34%
inhibition (MIA PaCa-2 [28]): Active
inhibition (INH) (MIA PaCa-2 [29]): 62%

SMILES: C=CC(=O)N1CCN(c2nc(=O)n(-c3ccccc3C(C)C)c3nc(-c4c(O)cccc4F)c(Cl)cc23)[C@@H](C)C1 (stereo in doubt; (R)-18)
hepatocyte CLint at 0.5 µM [8]: 119 µL/min/1e6 cells
solubility thermodynamic [9]: 7 µM (≈ 3.93 µg/mL)
hepatocyte CLint at 0.5 µM [10]: 38 µL/min/1e6 cells
IC50 (GTPase KRas [1]): 51 nM
IC50 (A549): 14.2 µM
clearance [2]: 6.67 mL/min/kg
solubility thermodynamic [11]: 9 µM (≈ 5.06 µg/mL)
bioavailability [3]: 33%
solubility thermodynamic [12]: 184 µM (≈ 103 µg/mL)
Vd [31]: 0.4 L/kg
Papp A→B at 2 h, up to 50 µM [14]: 9 ×10⁻⁶ cm/s
t1/2 [16]: 0.21 days
IC50 (MIA PaCa-2 [15]): 5 nM
IC50 (GTPase KRas [6]): 44 nM
half-life [7]: 78 min

hepatocyte CLint at 0.5 µM [8]: 65 µL/min/1e6 cells
solubility thermodynamic [9]: 500 µM (≈ 281 µg/mL)
hepatocyte CLint at 0.5 µM [10]: 5 µL/min/1e6 cells
IC50 (A549): > 50 µM
clearance [2]: 78.3 mL/min/kg
solubility thermodynamic [11]: 495 µM (≈ 278 µg/mL)
bioavailability [3]: 10%
solubility thermodynamic [12]: 500 µM (≈ 281 µg/mL)
Vd [31]: 1.7 L/kg
Papp A→B at 2 h, up to 50 µM [14]: < 1 ×10⁻⁶ cm/s
IC50 (MIA PaCa-2 [15]): 9 nM
half-life [7]: 18 min
SMILES: C=CC(=O)N1CCN(c2nc(=O)n(-c3c(C)ncnc3C(C)C)c3nc(-c4c(O)cccc4F)c(F)cc23)[C@@H](C)C1

SMILES: C=CC(=O)N1CCN(c2nc(=O)n(-c3c(C4CC4)ncnc3C3CC3)c3nc(-c4c(O)cccc4F)c(Cl)cc23)[C@@H](C)C1
clearance [2]: 55 mL/min/kg
bioavailability [3]: 7%
fraction unbound [4]: 0.08
Ratio [5]: 0.6
IC50 (GTPase KRas [6]): 36 nM
half-life [7]: 30 min
